# Biological target: T1, acetylcholine muscarinic M1 receptor (Homo sapiens, UniProt P11229)
# T1 construct: expressed in transfected cells; host or cells: CHOnfat cells (CHO; also called CHOK1/hM1)
# T1 sequence (P11229 1-460): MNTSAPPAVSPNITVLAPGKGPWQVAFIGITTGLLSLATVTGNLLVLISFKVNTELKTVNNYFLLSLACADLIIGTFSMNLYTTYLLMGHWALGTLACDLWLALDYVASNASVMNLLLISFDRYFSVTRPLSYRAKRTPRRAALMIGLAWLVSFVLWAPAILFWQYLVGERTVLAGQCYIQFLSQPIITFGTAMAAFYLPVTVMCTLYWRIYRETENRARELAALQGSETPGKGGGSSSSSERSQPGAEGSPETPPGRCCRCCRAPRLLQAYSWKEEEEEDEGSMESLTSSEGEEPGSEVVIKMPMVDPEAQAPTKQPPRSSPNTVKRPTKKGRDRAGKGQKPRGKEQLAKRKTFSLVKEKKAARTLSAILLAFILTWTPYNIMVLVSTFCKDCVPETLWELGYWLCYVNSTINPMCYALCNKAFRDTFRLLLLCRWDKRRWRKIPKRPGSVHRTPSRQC
# Assay: FLIPR intracellular calcium assay for M1 receptor positive allosteric modulator activity
# Type: cell-based
# Settings: not given
# Experimental: The assay studies the effect of one or several concentrations of test compounds on basal or acetylcholine-stimulated Ca^2+ levels using FLIPR.
# Compounds are prepared and subjected to a preincubation period of 4 min. Thereafter, a single EC20 concentration of acetylcholine is added to each well (3 nM final). The intracellular Ca^2+ level of each sample is measured and compared to an acetylcholine control to determine any modulatory activity.
# Cells: CHOnfat/hM1, hM2, hM3 or hM4 cells are plated 24 hr before the assay at a density of 18,000 cells/well (100 μl) in a 384 well plate. CHOnfat/hM1 and CHOnfat/hM3 Growth Medium: 90% DMEM (Hi Glucose); 10% HI FBS; 2 mM L-glutamine; 0.1 mM NEAA; Pen-Strep; and 1 mg/ml Geneticin, are added. For M2Gqi5CHOnfat and M4Gqi5CHOnfat cells, an additional 600 μg/ml hygromycin is added.
# Buffers. […] Dye Loading Buffer: Assay Buffer plus 1% Fetal Bovine Serum and Fluo-4AM/Pluronic Acid Mixture. […] 20% Pluronic Acid Solution stock, with a concentration of 0.04% in Buffer, 0.02% in Assay.
# 65 μL of 2 mM Fluo-4AM are mixed with 130 of 20% Pluronic Acid. The resulting solution and 650 μL FBS is added to the assay buffer for a total volume of 65 mL. Positive Controls: 4-Br-A23187: 10 mM in DMSO; final concentration 10 μM. Acetylcholine: 10 mM in water, working stock at both 20 μM and 30 μM in assay buffer, final concentration of 10 μM. This is used to check the maximum stimulation of the CHOK1/hM1 cells. 20 μM (2×) acetylcholine is added in the preincubation part of the assay, and the 30 μM (3×) stock is added in the second part. (EC20)Acetylcholine: 10 mM in water, working stock of 9 nM (3×), and final concentration in assay is 3 nM. This is used after the preincubation with test compounds. Addition of the EC20 Acetylcholine to each well with a test compound will ascertain any modulator activity. 24 wells contain 3 nM Acetylcholine alone as a control.
# Determining Activity of Putative Compounds:
# Four 96-well plates are combined into a 384-well plate using Mosquito Nanolitre Pipetting System by transferring 1 μl of serial diluted compounds to each well, and 1 mM acetylcholine (100× stock concentration) were added as a control. Using Temo, 49 μl assay buffer is added to each well of the 384-well plate right before assay.
# In a 96-well Whatman 2 ml Uniplate, 9 nM Acetylcholine (3×) is pipetted into wells corresponding to the screening compounds and into control wells. The 30 μM acetylcholine control (3×) is added into control wells and the 3× agonist plate is transferred into a 384-well plate.
# Cells are washed three times with 100 μL of buffer, leaving 30 μL of buffer in each well. Using Multimek, 30 μL of Dye Loading Buffer is added into each well and incubated at 37° C., 5% CO2 for up to one hr.
# After 60 min, the cells are washed three times with 100 μL of buffer, leaving 30 μL of buffer in each well. The cell plate, screening plate, and agonist addition plates are placed on the platform in the FLIPR and the door is closed. A signal test to check background fluorescence and basal fluorescence signal is performed. Laser intensity is adjusted if necessary.
# 4 min of preincubation with the test compounds is provided to determine any agonist activity on the M1 receptor by comparison to the 1 mM acetylcholine control. After preincubation, the EC20 value of acetylcholine (3 nM final) is added to determine any modulator activity.
row,EC50 [nM],SMILES
1,1340,O=C(O)c1cc(CN2CCC(c3ccccc3)CC2)c2ccccn2c1=O [Example 25]

# Same assay, conditions: CHOnfat/hM1 cells, 4 min preincubation, then EC20 acetylcholine (3 nM final), intracellular Ca2+ by FLIPR384; read-out: IP Value (inflection point)
row,SMILES,EC50 [nM]
1,"Cn1c(C2CCN(Cc3cc(C(=O)O)c(=O)n4ccccc34)CC2)nc2ccccc21 [Example 91, 1-{[4-(1-methyl-1H-benzimidazol-2-yl)piperidin-1-yl]methyl}-4-oxo-4H-quinolizine-3-carboxylic Acid]",30500
2,O=C(O)c1cc(CN2CCC(c3c[nH]c4ccc(O)cc34)CC2)c2ccccn2c1=O [Example 83],277
3,O=C(O)c1cc(CN2CCCCC2c2ccncc2)c2ccccn2c1=O (stereo not drawn) [Example 6],2240
4,O=C(O)c1cc(CN2CCCC(O)C2)c2ccccn2c1=O (stereo not drawn) [Example 24],8700

# Next, values leading:
row,EC50 [nM],SMILES
1,42,O=C(O)c1cc(CN2CCC(c3nc4cc(F)ccc4[nH]3)CC2)c2ccccn2c1=O [Example 86]
2,122,O=C(O)c1cc(CN2CCC(c3nc4ccccc4[nH]3)CC2)c2ccccn2c1=O [Example 85]
3,548,"O=C(O)c1cc(CN2CCC(c3ccc(C(F)(F)F)cc3)CC2)c2ccccn2c1=O [Example 1, 4-oxo-1-({4-[4-(trifluoromethyl)phenyl]piperidin-1-yl}methyl)-4H-quinolizine-3-carboxylic Acid]"
4,508,O=C(O)c1cc(CN2CCCCC2c2nc3cc(F)ccc3[nH]2)c2ccccn2c1=O (stereo not drawn) [Example 14]
